Assay results reported in patent publication US20260060973A1, “Ophthalmic Composition for Treating Non-Infectious Inflammatory Diseases” (VIVAVISION BIOTECH LTD., priority 2023, published 2026).
Entries after “also recorded” stand apart in the source; their conditions may differ.

Legend:
[1] = target: Janus kinase 1 (JAK1) (Homo sapiens, UniProt P23458); assay: Mechanism of action of VVN461; type: biochemical
Excerpt: (§1) JAK- or TYK-dependent cytokines are associated with non-infectious inflammatory diseases (e.g., uveitis or other ocular diseases), which is a potential therapeutic target for immune-mediated uveitis. VVN461 can target both Janus kinase 1 (JAK1) and tyrosine kinase 2 (TYK2), target JAK/TYK-dependent cytokines, and inhibit Janus kinase (JAK)/signal transducer and activation of transcription (STAT) pathway, and thus can be used for the treatment of non-infectious inflammatory diseases such as uveitis. […] These phosphorylated receptor residues that act as binding sites for STAT proteins are activated by the phosphorylation of the JAKs, so that STAT proteins are dimerized and translocated to the nucleus of the cell, thereby bind to specific DNA sites and regulate gene expression, which in turn leads to inflammation. In contrast, VVN461 of the present application can target JAK/TYK-dependent cytokines and inhibit the JAK/STAT pathway, and thus can be used for the treatment of non-infectious inflammatory diseases such as uveitis.

[2] = target: tyrosine kinase 2 (TYK2) (Homo sapiens, UniProt P29597); assay: Mechanism of action of VVN461; type: biochemical
tyrosine kinase 2 (TYK2), sequence (P29597 whole entry, species assumed): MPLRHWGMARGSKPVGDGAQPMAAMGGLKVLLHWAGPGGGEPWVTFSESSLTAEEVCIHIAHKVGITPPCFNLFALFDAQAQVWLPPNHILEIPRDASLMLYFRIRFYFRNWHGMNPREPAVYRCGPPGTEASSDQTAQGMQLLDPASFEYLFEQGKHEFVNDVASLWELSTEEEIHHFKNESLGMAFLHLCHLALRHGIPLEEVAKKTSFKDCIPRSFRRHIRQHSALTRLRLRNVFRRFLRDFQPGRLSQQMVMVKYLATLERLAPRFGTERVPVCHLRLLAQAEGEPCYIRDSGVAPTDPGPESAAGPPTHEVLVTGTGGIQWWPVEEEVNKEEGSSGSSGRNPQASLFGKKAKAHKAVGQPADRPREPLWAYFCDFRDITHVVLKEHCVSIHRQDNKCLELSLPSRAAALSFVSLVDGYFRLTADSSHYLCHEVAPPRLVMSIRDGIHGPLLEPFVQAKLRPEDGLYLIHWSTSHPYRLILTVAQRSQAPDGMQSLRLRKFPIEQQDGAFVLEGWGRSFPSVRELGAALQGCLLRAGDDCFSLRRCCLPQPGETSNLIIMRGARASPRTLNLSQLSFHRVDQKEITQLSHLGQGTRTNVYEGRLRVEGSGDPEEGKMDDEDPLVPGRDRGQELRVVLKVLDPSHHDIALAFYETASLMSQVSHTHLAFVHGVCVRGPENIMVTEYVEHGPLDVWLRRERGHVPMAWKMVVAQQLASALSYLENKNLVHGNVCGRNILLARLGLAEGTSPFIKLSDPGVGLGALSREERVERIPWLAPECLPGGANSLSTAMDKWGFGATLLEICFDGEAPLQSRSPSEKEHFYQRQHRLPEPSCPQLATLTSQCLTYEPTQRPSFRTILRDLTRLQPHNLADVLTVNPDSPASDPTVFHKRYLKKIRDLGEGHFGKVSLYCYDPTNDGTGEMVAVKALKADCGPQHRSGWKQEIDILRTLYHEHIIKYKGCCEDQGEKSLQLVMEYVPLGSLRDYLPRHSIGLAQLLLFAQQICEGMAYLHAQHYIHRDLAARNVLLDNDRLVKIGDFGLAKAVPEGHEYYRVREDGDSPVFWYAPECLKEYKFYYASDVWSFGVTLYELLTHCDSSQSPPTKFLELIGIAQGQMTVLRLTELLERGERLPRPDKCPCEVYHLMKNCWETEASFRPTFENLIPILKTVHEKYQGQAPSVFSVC
Excerpt: as §1

[3] = Solubility in water; type: physicochemical

Janus kinase 1 (JAK1), sequence (P23458 whole entry, species assumed): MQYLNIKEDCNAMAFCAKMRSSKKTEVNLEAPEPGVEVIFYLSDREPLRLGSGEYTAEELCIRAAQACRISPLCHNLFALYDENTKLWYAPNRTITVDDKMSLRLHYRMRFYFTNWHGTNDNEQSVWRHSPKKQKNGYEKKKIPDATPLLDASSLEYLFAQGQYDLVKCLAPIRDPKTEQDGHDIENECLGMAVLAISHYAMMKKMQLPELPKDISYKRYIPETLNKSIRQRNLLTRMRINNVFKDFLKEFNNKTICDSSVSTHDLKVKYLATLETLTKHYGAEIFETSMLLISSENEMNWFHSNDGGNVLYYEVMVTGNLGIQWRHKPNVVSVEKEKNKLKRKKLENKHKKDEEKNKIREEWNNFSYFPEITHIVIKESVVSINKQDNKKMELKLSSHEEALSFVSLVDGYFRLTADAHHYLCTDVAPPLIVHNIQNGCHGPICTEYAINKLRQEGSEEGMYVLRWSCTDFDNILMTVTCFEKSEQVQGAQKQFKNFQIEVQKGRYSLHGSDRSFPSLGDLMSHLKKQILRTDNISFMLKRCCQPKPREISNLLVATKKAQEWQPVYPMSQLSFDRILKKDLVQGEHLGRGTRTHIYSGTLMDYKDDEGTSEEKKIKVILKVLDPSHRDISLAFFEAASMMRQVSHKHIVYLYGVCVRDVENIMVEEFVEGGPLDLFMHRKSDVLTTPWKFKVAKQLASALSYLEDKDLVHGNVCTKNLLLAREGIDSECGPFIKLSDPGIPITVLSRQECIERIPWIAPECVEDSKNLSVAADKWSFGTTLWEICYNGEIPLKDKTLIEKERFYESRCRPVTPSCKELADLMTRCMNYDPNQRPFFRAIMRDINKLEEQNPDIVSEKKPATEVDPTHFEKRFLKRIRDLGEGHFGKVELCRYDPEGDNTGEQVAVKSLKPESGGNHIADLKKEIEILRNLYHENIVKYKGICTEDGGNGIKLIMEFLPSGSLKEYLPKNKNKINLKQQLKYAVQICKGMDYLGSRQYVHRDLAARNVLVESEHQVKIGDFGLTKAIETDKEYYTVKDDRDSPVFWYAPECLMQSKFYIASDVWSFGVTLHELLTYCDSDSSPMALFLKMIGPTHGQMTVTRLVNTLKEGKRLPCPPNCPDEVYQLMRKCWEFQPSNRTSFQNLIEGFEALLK

JAK1 inhibition [1]: dual JAK1/TYK2 inhibitor | TYK2 inhibition [2]: dual JAK1/TYK2 inhibitor
SMILES: C[C@@H](O)c1nc2cnc3[nH]ccc3c2n1N1CCC(CC#N)CC1 [VVN461, (R)-2-(1-(2-(1-hydroxyethyl)imidazo[4,5-d]pyrrolo[2,3-b]pyridin-1(6H)-yl)piperidin-4-yl)acetonitrile]
solubility [3]: practically insoluble in water; also recorded: low water solubilities
